Data published in patent EP2997966A1, “Naphthyl Sulfonamide Pyrrolidine Derivatives as KEAP-1 Modulators for the Treatment of Diabetes, Obesity, Dyslipidemia and Related Disorders” (SANOFI, priority 2014, dated 2016).
Like-named read-outs stand apart in the source and are kept apart here.

Biological target: T1, human Keap1 kelch domain (amino acids Ala321-Thr609) (Homo sapiens, UniProt Q14145)
T1 construct: human Keap1 kelch domain (amino acids Ala321-Thr609)
Assay: Keap1-Nrf2 peptide binding assay (fluorescence polarisation)
Conditions: binding to fluorescently labeled human Nrf2 peptide, 20 nM Keap1 kelch domain, 50 nM peptide
Experimental: Keap1-Nrf2 peptide binding assay
Two microliters of test compound in reaction buffer (phosphate-buffered saline, 2 mM DL-dithiothreitol, 0.015 % (v/v) Brij-35) containing 6 % (v/v) DMSO were mixed with two microliters of the Keap1 kelch domain in reaction buffer in a black 384-well small volume microtiter plate and incubated at ambient temperature for 15 minutes. Thereafter, two microliters were added of the fluorescently labeled Nrf2 peptide in reaction buffer, and the mixture was incubated for a further 30 minutes at ambient temperature. Final concentrations of the Keap1 kelch domain and the fluorescently labeled Nrf2 peptide were 20 nM and 50 nM, respectively.
Fluorescence polarization (FP) was measured at excitation and emission wavelengths of 635 nm and 660 nm, respectively. Positive controls for binding (two microliters of reaction buffer containing 6 % (v/v) DMSO instead of test compound in the same buffer) and negative controls (as positive controls, but without Keap1 kelch domain) were included on each microtiter plate.

T1 sequence (Q14145 321-609): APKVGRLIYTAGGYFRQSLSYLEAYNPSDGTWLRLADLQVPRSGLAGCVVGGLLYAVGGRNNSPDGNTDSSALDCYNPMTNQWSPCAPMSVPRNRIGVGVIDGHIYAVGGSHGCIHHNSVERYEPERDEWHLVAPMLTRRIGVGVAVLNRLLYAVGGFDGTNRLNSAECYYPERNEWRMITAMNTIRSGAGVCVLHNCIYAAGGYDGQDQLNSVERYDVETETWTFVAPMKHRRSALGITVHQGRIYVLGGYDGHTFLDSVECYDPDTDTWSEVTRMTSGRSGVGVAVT

Compound | IC50 (read-out: IC50) [µM] | IC50 [µM]
O=C(O)[C@@H]1CCN(c2ccc(NS(=O)(=O)c3cc(F)c(F)cc3Cl)c3ccccc23)C1 [Example 45, (3R)-1-[4-[(2-chloro-4,5-difluorophenyl)sulfonylamino]-1-naphthyl]pyrrolidine-3-carboxylic acid] |  | 4.5
O=C(O)[C@H]1CCN(c2ccc(NS(=O)(=O)c3cccc(Cl)c3Cl)c3ccccc23)C1 [Example 20, (3S)-1-[4-[(2,3-dichlorophenyl)sulfonylamino]-1-naphthyl]pyrrolidine-3-carboxylic acid] |  | 8.6
O=C(O)[C@@H]1CCN(c2ccc(NS(=O)(=O)c3cccc4c3OCCO4)c3ccccc23)C1 [Example 74, (3R)-1-[4-(2,3-dihydro-1,4-benzodioxin-5-ylsulfonylamino)-1-naphthyl]pyrrolidine-3-carboxylic acid] |  | 9.1
Cc1ccc(Cl)cc1S(=O)(=O)Nc1ccc(N2CC[C@@H](C(=O)O)C2)c2ccccc12 [Example 43, (3R)-1-[4-[(5-chloro-2-methylphenyl)sulfonylamino]-1-naphthyl]pyrrolidine-3-carboxylic acid] |  | 1.2
Cc1nn(-c2ccccc2)c(C)c1S(=O)(=O)Nc1ccc(N2CC[C@@H](C(=O)O)C2)c2ccccc12 [Example 42, (3R)-1-[4-[(3,5-dimethyl-1-phenyl-pyrazol-4-yl)sulfonylamino]-1-naphthyl]pyrrolidine-3-carboxylic acid] |  | 3
Cc1c(S(=O)(=O)Nc2ccc(N3CC[C@@H](C(=O)O)C3)c3ncccc23)c2ccccc2n1C [Example 71, (3R)-1-[5-[(1,2-dimethylindol-3-yl)sulfonylamino]-8-quinolyl]pyrrolidine-3-carboxylic acid] |  | 1.1
Cc1ccc(Cl)cc1S(=O)(=O)Nc1ccc(N2CC[C@H](C(=O)O)C2)c2ccccc12 [Example 26, (3S)-1-[4-[(5-chloro-2-methylphenyl)sulfonylamino]-1-naphthyl]pyrrolidine-3-carboxylic acid] |  | 8.1
Cc1nc(C)c(S(=O)(=O)Nc2ccc(N3CC[C@H](C(=O)O)C3)c3ccccc23)s1 [Example 24, (3S)-1-[4-[(2,4-dimethylthiazol-5-yl)sulfonylamino]-1-naphthyl]pyrrolidine-3-carboxylic acid] |  | 4.3
CCCCCCCCn1nc(C)c(S(=O)(=O)Nc2ccc(N3CC[C@@H](C(=O)O)C3)c3ncccc23)c1C [Example 73] | 1.6 | 
Cc1nn(C)c(Cl)c1S(=O)(=O)Nc1ccc(N2CCC(C)(C(=O)O)C2)c2ccccc12 (stereo not shown) [Example 10, 1-[4-[(5-chloro-1,3-dimethyl-pyrazol-4-yl)sulfonylamino]-1-naphthyl]-3-methyl-pyrrolidine-3-carboxylic acid] | 1 | 
CCCCCCCCn1nc(C)c(S(=O)(=O)Nc2ccc(N3CC[C@@H](C(=O)O)C3)c3ccccc23)c1C [Example 65, (3R)-1-[4-[(3,5-dimethyl-1-octyl-pyrazol-4-yl)sulfonylamino]-1-naphthyl]pyrrolidine-3-carboxylic acid] | 0.19 | 
O=C(O)[C@@H]1CCN(c2ccc(NS(=O)(=O)c3cc(Cl)ccc3Cl)c3ccccc23)C1 [Example 48, (3R)-1-[4-[(2,5-dichlorophenyl)sulfonylamino]-1-naphthyl]pyrrolidine-3-carboxylic acid] |  | 2.5
Cc1cc(C)c(C)c(S(=O)(=O)Nc2ccc(N3CCCC(C(=O)O)C3)c3ccccc23)c1C (stereo not shown) [Example 5, 1-[4-[(2,3,5,6-tetramethylphenyl)sulfonylamino]-1-naphthyl]piperidine-3-carboxylic acid; 2,2,2-trifluoroacetic acid] | 0.5 | 
O=C(O)[C@H]1CCN(c2ccc(NS(=O)(=O)c3ccc(Cl)c(C(F)(F)F)c3)c3ccccc23)C1 [Example 23, (3S)-1-[4-[[4-chloro-3-(trifluoromethyl)phenyl]sulfonylamino]-1-naphthyl]pyrrolidine-3-carboxylic acid] |  | 8.5
Cc1c(S(=O)(=O)Nc2ccc(N3CC[C@@H](C(=O)O)C3)c3ccccc23)cnn1CC(C)C [Example 49, (3R)-1-[4-[(1-isobutyl-5-methyl-pyrazol-4-yl)sulfonylamino]-1-naphthyl]pyrrolidine-3-carboxylic acid] |  | 2.9
Cc1nn(C)c(Cl)c1S(=O)(=O)Nc1ccc(N2CC[C@@H](C(=O)O)C2)c2ncccc12 [Example 52, (3R)-1-[5-[(5-chloro-1,3-dimethyl-pyrazol-4-yl)sulfonylamino]-8-quinolyl]pyrrolidine-3-carboxylic acid] |  | 2.7
Cc1nn(C)c(C)c1S(=O)(=O)Nc1ccc(N2CC[C@@H](C(=O)O)C2)c2ccccc12 [Example 38, (3R)-1-[4-[(1,3,5-trimethylpyrazol-4-yl)sulfonylamino]-1-naphthyl]pyrrolidine-3-carboxylic acid] |  | 0.9
Cc1cc(C)c(C)c(S(=O)(=O)Nc2ccc(N3CCC[C@H](C(=O)O)C3)c3ccccc23)c1C [Example 59, (3S)-1-[4-[(2,3,5,6-tetramethylphenyl)sulfonylamino]-1-naphthyl]piperidine-3-carboxylic acid] | 0.5 | 
Cc1cc(C)c(C)c(S(=O)(=O)Nc2ccc(N3CCCC(C(=O)O)C3)c3ncccc23)c1C (stereo not shown) [Example 15, 1-[5-[(2,3,5,6-tetramethylphenyl)sulfonylamino]-8-quinolyl]piperidine-3-carboxylic acid; 2,2,2-trifluoroacetic acid] |  | 24
Cc1cc(C)c(C)c(S(=O)(=O)Nc2ccc(C3CCCC3C(=O)O)c3ccccc23)c1C (stereo not shown) [Example 1, 2-[4-[(2,3,5,6-tetramethylphenyl)sulfonylamino]-1-naphthyl]cyclopentanecarboxylic acid] | 3.1 | 
Cc1c(S(=O)(=O)Nc2ccc(N3CC[C@@H](C(=O)O)C3)c3ncccc23)sc2ccc(Cl)cc12 [Example 72, (3R)-1-[5-[(5-chloro-3-methyl-benzothiophen-2-yl)sulfonylamino]-8-quinolyl]pyrrolidine-3-carboxylic acid] | 0.4 | 

Now from value to compound, other results behind:

IC50 (read-out: IC50) [µM] | Compound | IC50 [µM]
1.3 | O=C(O)[C@@H]1CCN(c2ccc(NS(=O)(=O)c3ccc(Cl)cc3Cl)c3ccccc23)C1 [Example 12, (3R)-1-[4-[(2,4-dichlorophenyl)sulfonylamino]-1-naphthyl]pyrrolidine-3-carboxylic acid] | 
2.9 | Cc1c(Cl)cccc1S(=O)(=O)Nc1ccc(N2CC[C@H](C(=O)O)C2)c2ccccc12 [Example 16, (3S)-1-[4-[(3-chloro-2-methylphenyl)sulfonylamino]-1-naphthyl]pyrrolidine-3-carboxylic acid] | 
2.9 | O=C(O)[C@H]1CCN(c2ccc(NS(=O)(=O)c3cc(Cl)cc(Cl)c3)c3ccccc23)C1 [Example 17, (3S)-1-[4-[(3,5-dichlorophenyl)sulfonylamino]-1-naphthyl]pyrrolidine-3-carboxylic acid] | 
1.7 | O=C(O)[C@@H]1CCN(c2ccc(NS(=O)(=O)c3cc(Cl)cc(Cl)c3)c3ccccc23)C1 [Example 33, (3R)-1-[4-[(3,5-dichlorophenyl)sulfonylamino]-1-naphthyl]pyrrolidine-3-carboxylic acid] | 
0.8 | Cc1c(Cl)cccc1S(=O)(=O)Nc1ccc(N2CC[C@@H](C(=O)O)C2)c2ccccc12 [Example 32, (3R)-1-[4-[(3-chloro-2-methylphenyl)sulfonylamino]-1-naphthyl]pyrrolidine-3-carboxylic acid] | 
9 | O=C(O)[C@H]1CCN(c2ccc(NS(=O)(=O)c3cc(Cl)sc3Cl)c3ccccc23)C1 [Example 18, (3S)-1-[4-[(2,5-dichloro-3-thienyl)sulfonylamino]-1-naphthyl]pyrrolidine-3-carboxylic acid] | 
2.9 | O=C(O)[C@@H]1CCN(c2ccc(NS(=O)(=O)c3cc(Cl)sc3Cl)c3ccccc23)C1 [Example 34, (3R)-1-[4-[(2,5-dichloro-3-thienyl)sulfonylamino]-1-naphthyl]pyrrolidine-3-carboxylic acid] | 
1.2 | Cc1nn(C)c(Cl)c1S(=O)(=O)Nc1ccc(N2CCC(C(=O)O)C2)c2ccccc12 (stereo not shown) [Example 4, 1-[4-[(5-chloro-1,3-dimethyl-pyrazol-4-yl)sulfonylamino]-1-naphthyl]pyrrolidine-3-carboxylic acid] | 
7.1 | COc1ccc(F)c(S(=O)(=O)Nc2ccc(N3CC[C@H](C(=O)O)C3)c3ccccc23)c1 [Example 27, (3S)-1-[4-[(2-fluoro-5-methoxyphenyl)sulfonylamino]-1-naphthyl]pyrrolidine-3-carboxylic acid] | 
0.13 | Cc1c(S(=O)(=O)Nc2ccc(N3CC[C@@H](C(=O)O)C3)c3ccccc23)sc2cccc(F)c12 [Example 60, (3R)-1-[4-[(4-fluoro-3-methyl-benzothiophen-2-yl)sulfonylamino]-1-naphthyl]pyrrolidine-3-carboxylic acid] | 
5 | O=C(O)[C@@H]1CCN(c2ccc(NS(=O)(=O)c3ccc(Cl)c(C(F)(F)F)c3)c3ccccc23)C1 [Example 40, (3R)-1-[4-[[4-chloro-3-(trifluoromethyl)phenyl]sulfonylamino]-1-naphthyl]pyrrolidine-3-carboxylic acid] | 
0.6 | O=C(O)[C@@H]1CCN(c2ccc(NS(=O)(=O)c3ccc4c(c3)CCCC4)c3ccccc23)C1 [Example 77, (3R)-1-[4-(tetralin-6-ylsulfonylamino)-1-naphthyl]pyrrolidine-3-carboxylic acid] | 
0.5 | Cn1ccc2c(S(=O)(=O)Nc3ccc(N4CC[C@@H](C(=O)O)C4)c4ccccc34)cccc21 [Example 64, (3R)-1-[4-[(1-methylindol-4-yl)sulfonylamino]-1-naphthyl]pyrrolidine-3-carboxylic acid] | 
